Entries after “also recorded” stand apart in the source; their conditions may differ.
Experiments:
[1] = tested on: Arabidopsis WT and yucca mutants; type: in vivo, Arabidopsis thaliana; settings: for sensitivity of yucca mutants to tryptophan analogs: yucca mutants compared with normal toxicity to plants
Method: Enhanced expression of the YUCCA gene overproduces auxin. […] Massive root growth was observed when yucca explants grew in Murashige and Skoog (MS) media. Callus was induced by adding cytokinin, and young yucca plants that are regenerated in MS media containing cytokinin. A GUS reporter gene controlled by an auxin responsive element was expressed at much higher level in yucca. […] In addition, YUCCA appears to be involved in tryptophan-dependent auxin synthesis. […] In the presence of 100 μM 5-methyl tryptophan, WT plant material died while yucca survived.

yucca mutant = type: in vivo, Arabidopsis thaliana
[2] = tested on: Arabidopsis WT and yucca mutants; experiment: Auxin transport block by NPA in growth medium, club root development; type: in vivo, Arabidopsis thaliana
From the text: It was also discovered that auxin transport in yucca was blocked by application of transport inhibitor naphthylthalamic acid (NPA), resulting in yucca mutants having a giant root, called a “club root” due to its thick, short appearance. This club root was substantially thicker than the regular yucca root, which is already thicker than the WT root. […] The club root produced by blocking auxin transport in yucca mutants may provide an important tool for studying root growth and development.

[3] = target: T1, recombinant YUCCA gene product (SEQ ID NO. 2) (Arabidopsis thaliana, UniProt Q9SZY8); experiment: FMO activity assay of recombinant YUCCA gene product with tryptamine (TLC, mass spectroscopy); type: biochemical; settings: 2 mM tryptamine, 1 mM NADP+, glucose-6-phosphate, glucose-6-phosphate dehydrogenase, 37° C.
T1 construct: 2, was recovered from the E. coli overexpression system; made in house; host or cells: E. coli (vector pMalC2)
T1 sequence (Q9SZY8 1-414): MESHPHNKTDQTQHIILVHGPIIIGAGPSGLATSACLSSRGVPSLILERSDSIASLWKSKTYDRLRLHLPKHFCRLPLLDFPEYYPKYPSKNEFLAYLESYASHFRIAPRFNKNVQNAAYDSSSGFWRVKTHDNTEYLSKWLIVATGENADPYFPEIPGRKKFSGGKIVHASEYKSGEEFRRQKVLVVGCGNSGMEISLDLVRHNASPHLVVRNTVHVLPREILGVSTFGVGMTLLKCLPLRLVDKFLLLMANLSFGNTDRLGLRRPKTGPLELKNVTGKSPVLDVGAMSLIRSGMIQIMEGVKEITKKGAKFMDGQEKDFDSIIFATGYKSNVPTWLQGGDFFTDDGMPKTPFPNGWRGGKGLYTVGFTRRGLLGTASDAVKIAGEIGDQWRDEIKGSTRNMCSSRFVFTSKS
From the text: Enzymatic activity of the YUCCA gene product. In one experiment, the YUCCA gene was transformed into an E. coli overexpression vector and the recombinant YUCCA gene product, a polypeptide having the amino acid sequence of SEQ ID NO. 2, was recovered from the E. coli overexpression system. […] Thus, the amino acid sequence of SEQ ID NO: 2 can be used to metabolize tryptamine, whether endogenous or exogenous, as well as to generate N-hydroxyl tryptamine.
Effect of YUCCA overexpression in E. coli on detectable FMO activity. To test the enzymatic activity of the YUCCA gene product, YUCCA (SEQ ID NO. 1) was transformed into an E. coli overexpression vector pMalC2 and the recombinant YUCCA gene product was recovered, using the method of Brunelle et al., (Drug Metab Dispos (1997) 25:1001). For activity assays, the recombinant YUCCA gene product was incubated with 2 mM tryptamine, 1 mM NADP^+, 1 mM glucose-6-phosphate, and glucose-6-phosphate dehydrogenase at 37° C. Reactions were stopped by adding an equal volume of methanol. Substrate and products were separated by thin-layer-chromatography (TLC) with CH2CL2/methanol/TEA (75:20:5). The product was eluted from TLC plates and mass spectroscopy was performed to determine the molecular mass of the product.

`N[C@@H](Cc1c[nH]c2ccc(F)cc12)C(=O)O` [5-fluoro-tryptophan] was tested, and the “sensitivity of yucca mutants to tryptophan analogs” value [1] was “less sensitive”.

For `Cc1ccc2[nH]cc(C[C@H](N)C(=O)O)c2c1` [5-methyl tryptophan], the “survival of WT plant material” value ([1]; WT, in the presence of 100 μM) was “died”, the survival of yucca ([1]; yucca mutant, in the presence of 100 μM) was “survived” and the “sensitivity of yucca mutants to tryptophan analogs” value [1] was “less sensitive”.

`NC1(C(=O)O)CC1` [ACC, 1-aminocyclopropane-1-carboxylate] was tested, and the “effect on yucca cotyledon” value (yucca mutant; 5 μM) was “did not change the appearance of the yucca cotyledon” and the “effect on yucca hypocotyl” value (yucca mutant; 5 μM) was “suppressed the elongated yucca hypocotyl”.

`C=C` [Ethylene] was tested, and the “effect on the yucca mutant” value (yucca mutant; ethylene treatment) was “little effect”.

With `O=C(O)c1ccccc1C(=O)Nc1cccc2ccccc12` [NPA, naphthylthalamic acid] the “club root development in wild type” value ([2]; Wild type (WT) Arabidopsis) was “did not develop a club root”, the “club root development in yucca mutants” value ([2]; 50 μM in the growth medium) was “multiple club roots” and the “club root development in yucca mutants” value ([2]; 100 μM in the growth medium) was “a single club root”.

For `NCCc1c[nH]c2ccccc12` [tryptamine], the “substrate conversion by recombinant YUCCA gene product” value [3] was “able to convert tryptamine to N-hydroxyl tryptamine; also recorded: use tryptamine as a substrate to generate N-hydroxyl tryptamine”.

Reference: patent US6455760B1, “Expression of flavin-containing monoxygenases in plants” (The Salk Institute of Biological Studies, priority 2000, dated 2002)
